# Assay results from PubChem BioAssay AID624405 (Broad Institute, 2012).
# Records with an inconclusive call do not appear.
# System: C2C12 myotubes + simvastatin, ATP luminescence, 48 h
# Assay: suppressors of statin myotoxicity in myotubes, dose response, cell-based, C2C12 myotubes, ATP luminescence, cherry pick (AID 624405);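 also: myotubes are challenged with simvastatin at 10 µM to lower ATP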
row,SMILES,AC40 [µM]
1,CCN1C(=O)NC2=C(C(=O)c3ccccc32)C1c1ccccc1F (stereo not given),5.31
2,N#CCCCSc1nnc(CSc2nc3ccccc3s2)n1-c1ccccc1,9.75
3,COc1ccc(S(=O)(=O)Nc2ccc3c(c2)CC(=O)N([C@@H](C)CO)C[C@@H](C)[C@H](CN(C)Cc2ccc(-c4ccccc4)cc2)O3)cc1,11
4,Cc1ccc(S(=O)(=O)Nc2ccc3c(c2)CC(=O)N([C@H](C)CO)C[C@H](C)[C@@H](CN(C)Cc2ccc(Cl)c(Cl)c2)O3)cc1,8.12
5,CCS(=O)(=O)c1ncc(Cl)c(C(=O)Nc2ccc(C)cc2)n1,2.8
6,COc1ccc(C(=O)Nc2ccccc2N2CCOCC2)cc1Br,12.1
7,CC1Cc2ccccc2N1C(=O)CSc1nnc(Cc2ccccc2)n1CCc1ccccc1 (stereo not given),8.6
8,CCN(CC)c1ncnc2c1cnn2Cc1ccc(C)cc1,12
9,COc1cc2c(cc1OC)C(=O)CCS2,1.88
10,COc1ccc(C)cc1C(=O)C1CC(C(=O)O)C(C)(C)C1C (stereo not given),10.6
11,O=S(=O)(c1ccccc1)c1nc(-c2ccco2)oc1N1CCCCCC1,6.08
12,Cc1noc(C)c1S(=O)(=O)Nc1ccc2c(c1)CC(=O)N([C@H](C)CO)C[C@@H](C)[C@H](CN(C)Cc1ccc(-c3ccccc3)cc1)O2,20.3
13,O=C(/C=C/Sc1ncn[nH]1)c1ccc(Cl)cc1,6.34
14,CN1C(=O)c2ccc(N(C)C)cc2C1=O,9.68
15,O=C(Nc1cccc(O)c1)c1cc(-c2cccs2)on1,5.99
16,CCCCn1c(C(C)NC(=O)c2cccs2)nc2ccccc21 (stereo not given),3.75
17,C[C@@H]1CN([C@H](C)CO)C(=O)Cc2cc(NC(=O)CCCCCC(=O)Nc3ccccc3N)ccc2O[C@@H]1CN(C)Cc1ccc(Cl)c(Cl)c1,9.57
18,Cc1cccc(C)c1Nc1nnc(SCc2cc([N+](=O)[O-])cc3c2OCOC3)s1,3.85
19,Cc1ccc(C(C(=O)NC2CCCC2)N(C(=O)Cc2cccs2)c2ccc3c(c2)OCCO3)cc1 (stereo not given),19
20,CCC(C(=O)NC1CCCC1)N(C(=O)Cn1nnc(-c2ccc(OC)c(OC)c2)n1)c1cccc(O)c1 (stereo not given),8.39
21,C[C@H](CO)N1C[C@H](C)[C@H](CN(C)CC2CCCCC2)Oc2ccc(NC(=O)CCCCCC(=O)Nc3ccccc3N)cc2CC1=O,10.1
22,Cc1ccc(S(=O)(=O)N(C)C[C@H]2Oc3c(NC(=O)Nc4ccccc4)cccc3C(=O)N([C@@H](C)CO)C[C@H]2C)cc1,18
23,C[C@H](CO)N1C[C@H](C)[C@H](CN(C)Cc2ccc3c(c2)OCO3)Oc2ccc(NC(=O)CCCCCC(=O)Nc3ccccc3N)cc2CC1=O,14.9

row,SMILES,AC40 [µM]
1,Cc1cccc(C(=O)Nc2cc(OCc3cccc(F)c3)c(Cl)cc2Cl)c1,15.9
2,Cc1cccc(-c2nnc3n2N=C(c2ccccc2Br)CS3)c1,0.28
3,Oc1ccc(-c2csc(Nc3ccc4c(c3)OCO4)n2)c(O)c1,10.5
4,CCCn1c(NC(=O)c2ccco2)nc2ccccc21,1.39
5,C[C@H]1CN([C@@H](C)CO)C(=O)c2cc(N(C)C)ccc2O[C@@H]1CN(C)Cc1ccc(C(=O)Nc2ccccc2N)cc1,5.34
6,C[C@@H]1CN([C@@H](C)CO)C(=O)c2cccc(NC(=O)Nc3ccc4c(c3)OCO4)c2O[C@H]1CN(C)Cc1ccc(C(=O)Nc2ccccc2N)cc1,9.42
7,c1coc(-c2nc3ccccc3s2)c1,18
8,O=C(CCCSc1nc(-c2ccco2)cc(C(F)(F)F)n1)NCc1cccs1,15.1
9,O=C(Nc1ccc(S(=O)(=O)N2CCCCC2)cc1)C1CCN(C(=O)c2ccco2)CC1,5.15
10,Cc1ccc(NS(=O)(=O)c2ccc(-n3cccn3)cc2)cc1F,5.32
11,Cc1ccc(S(=O)(=O)Nc2ccc3c(c2)CC(=O)N([C@@H](C)CO)C[C@H](C)[C@@H](CN(C)Cc2ccc(Cl)c(Cl)c2)O3)cc1,11.9
12,C[C@H](CO)N1C[C@H](C)[C@H](CN(C)Cc2ccc(C(=O)Nc3ccccc3N)cc2)Oc2ccc(N(C)C)cc2C1=O,2.53
13,Cc1ccc(S(=O)(=O)N2CCN(S(=O)(=O)c3ccc(C)cc3)C2c2ccccc2)cc1,18.6
14,O=C(C#Cc1ccccc1)Nc1cccc(F)c1,3.42
15,Clc1ccc(Cn2ncc3c(N4CCCCC4)ncnc32)cc1,15.8
16,NC1=NC(=Nc2ccccc2)c2ccccc21,16.3
17,C[C@H](CO)N1C[C@H](C)[C@@H](CN(C)Cc2ccc(Cl)c(Cl)c2)Oc2ccc(NS(=O)(=O)c3ccc(F)cc3)cc2CC1=O,19
18,C=CCn1c(=O)c2c(nc3n2CC(C)CN3c2cccc(OC)c2)n(C)c1=O (stereo not given),10.5
19,CC(=O)c1ccc(-c2cc([C@H]3[C@H]4C=CC[C@@H](C)[C@@H]4C(=O)N3Cc3ccccc3)ccc2F)cc1,8.76
20,CC(=O)c1c(C(C)=O)c(C)n(Cc2ccc(Cl)cc2)c1C,16.9
21,O=C(C1CCC1)N1CCCc2cc(S(=O)(=O)N3CCN(c4ccccc4)CC3)ccc21,16.6
22,COC(=O)[C@@]12CCCCN1[C@H](c1ccc(-c3cccc(Cl)c3)c(OC)c1)[C@@H]1C(=O)N(C)C(=O)[C@@H]12,2.72
23,Cc1ccc(S(=O)(=O)Nc2ccc3c(c2)CC(=O)N([C@@H](C)CO)C[C@@H](C)[C@H](CN(C)Cc2ccc(-c4ccccc4)cc2)O3)cc1,1.17

row,SMILES,AC40 [µM]
1,Cc1noc(C)c1S(=O)(=O)Nc1ccc2c(c1)CC(=O)N([C@H](C)CO)C[C@@H](C)[C@@H](CN(C)Cc1ccc(-c3ccccc3)cc1)O2,3.64
2,Cc1csc(NC(=O)CSc2nc3[nH]c(=O)cc(O)c3s2)n1,4.2
3,COCc1nc2ccccc2n1CCCOc1ccccc1,13.4
4,Cc1noc2ncnc(Sc3ccc(Cl)cc3)c12,3.11
5,C[C@H](CO)N1C[C@H](C)[C@@H](CN(C)Cc2ccc(Cl)c(Cl)c2)Oc2ccc(NC(=O)C3CCCCC3)cc2CC1=O,17.4
6,CCOc1ccccc1NC(=O)C1CCCN(S(=O)(=O)c2ccc(OC)c(C)c2)C1 (stereo not given),8.06
7,O=C(CN1CCN(c2nc(-c3ccccc3)cs2)CC1)NCc1ccc2c(c1)OCO2,10
8,C[C@H]1CN([C@@H](C)CO)C(=O)c2cc(C#Cc3ccncc3)cnc2O[C@@H]1CN(C)CC1CCCC1,4.52
9,Cc1cccc(S(=O)(=O)N2CCCCN3[C@H](CO)[C@@H](c4ccc(C#C[C@H](C)O)cc4)[C@@H]3C2)c1,17.3
10,CC(=O)c1cc(F)c(N2CCCC2)cc1C,17.4
11,COc1ccc(C#Cc2cnc3c(c2)C(=O)N([C@H](C)CO)C[C@H](C)[C@H](CN(C)Cc2ccccc2)O3)cc1OC,2.66
12,O=C1C[C@@H]2c3c(cccc3CN1Cc1ccccc1F)C[C@@H](O)[C@H]2O,17.2
13,c1ccc(-c2csc3nnc(SCc4ccc5c(c4)OCCO5)n23)cc1,3.7
14,C[C@H](CO)N1C[C@H](C)[C@@H](CN(C)Cc2ccc(Oc3ccccc3)cc2)Oc2ccc(NC(=O)C3CCCCC3)cc2CC1=O,8.63
15,CCCNC(=O)Cc1c(O)c2ccccc2[nH]c1=O,18.6
16,C[C@@H]1CN([C@H](C)CO)C(=O)c2cccc(NC(=O)c3nc4ccccc4s3)c2O[C@@H]1CN(C)Cc1ccc(C(=O)Nc2ccccc2N)cc1,0.462
17,CC(C)(C)NC(=O)CN(C(=O)Cn1nnc(-c2ccccc2F)n1)c1cccc2c1CCCC2,19.4
18,Cc1nc(-c2cccc(S(=O)(=O)N3CC(C)OC(C)C3)c2)cs1 (stereo not given),18.3
19,Cc1nnsc1NC(=O)OCc1ccc(C(F)(F)F)cc1,8.84
20,Cc1ccc(N2CC(C(=O)Nc3ccc(N(C)C)cc3)CC2=O)cc1C (stereo not given),12
21,C[C@@H]1CN([C@H](C)CO)C(=O)c2cc(NC(=O)Nc3cccc4ccccc34)ccc2O[C@H]1CN(C)Cc1ccc(C(=O)Nc2ccccc2N)cc1,17
22,Cc1ccc(O)c(NC(=O)c2cc(-c3cccs3)on2)c1,14.3
23,Oc1[nH]c2ccccc2c1C=Nc1ccc2c(c1)OCO2,1.99

row,SMILES,AC40 [µM]
1,C[C@@H]1CN([C@H](C)CO)C(=O)c2cccc(NC(=O)Nc3ccc4c(c3)OCO4)c2O[C@H]1CN(C)Cc1ccc(C(=O)Nc2ccccc2N)cc1,0.893
2,Fc1ccc(-c2csc(Nc3ccccn3)n2)cc1,7.31
3,O=C(c1cccc(Cl)c1)c1nn(-c2ccccc2)c(=O)cc1C(F)(F)F,4.99
4,COc1cccc(-c2ccc([C@@H]3[C@@H](C#N)N(C(=O)Cc4ccccc4)[C@H]3CO)cc2)c1,11.5
5,Cc1noc(C)c1NC(=O)Nc1cccc2c1O[C@H](CN(C)Cc1ccc(-c3ccccc3)cc1)[C@@H](C)CN([C@H](C)CO)C2=O,12.6
6,C[C@H](CO)N1C[C@H](C)[C@H](CN(C)Cc2ccccc2)Oc2ccc(NC(=O)CCCCCC(=O)Nc3ccccc3N)cc2CC1=O,10.1
7,CCC(c1nnnn1C1CCCC1)N1CCN(c2ccccc2F)CC1 (stereo not given),4.11
8,N#C[C@@H]1[C@@H](c2ccc(-c3ccc(F)cc3)cc2)[C@H](CO)N1C(=O)Cc1ccccc1,9.36
9,C=CCn1c(SCC(=O)NC2CCCC2)nc2scc(-c3ccco3)c2c1=O,9.19
10,C[C@H]1CN([C@@H](C)CO)S(=O)(=O)c2ccc(C#Cc3ccc(F)cc3)cc2O[C@@H]1CN(C)S(=O)(=O)c1cn(C)cn1,5.96
11,C[C@@H]1CN([C@H](C)CO)C(=O)Cc2cc(NS(=O)(=O)c3ccc(Cl)cc3)ccc2O[C@H]1CN(C)CC1CCCCC1,9.96
12,C[C@H](CO)N1C[C@H](C)[C@H](CN(C)Cc2ccc(Cl)c(Cl)c2)Oc2ccc(NC(=O)CCCCCC(=O)Nc3ccccc3N)cc2CC1=O,13.4
13,O=S(=O)(NCc1ccco1)c1ccc(S(=O)(=O)N2CCCCC2)cc1,5.03
14,C[C@@H]1CN([C@H](C)CO)C(=O)c2cc(NS(=O)(=O)c3ccc(Cl)cc3)ccc2O[C@@H]1CN(C)Cc1ccc(C(=O)Nc2ccccc2N)cc1,11.3
15,C[C@@H]1CN([C@@H](C)CO)C(=O)Cc2cc(NC(=O)CCCCCC(=O)Nc3ccccc3N)ccc2O[C@@H]1CN(C)CC1CCCCC1,7.13
16,Cc1ccc(S(=O)(=O)Nc2ccc3c(c2)C(=O)N([C@H](C)CO)C[C@H](C)[C@H](CN(C)Cc2ccc(C(=O)Nc4ccccc4N)cc2)O3)cc1,17
17,COc1ccc(-n2c(C)cc(C=O)c2C)cc1Cl,9.14
18,C[C@H](CO)N1C[C@H](C)[C@@H](CN(C)Cc2ccc(Cl)c(Cl)c2)Oc2ccc(NC(=O)Cc3cn(C)c4ccccc34)cc2CC1=O,7.35
19,COc1ccc(S(=O)(=O)N(C)C[C@H]2Oc3c(NC(=O)Nc4ccc(F)cc4)cccc3C(=O)N([C@@H](C)CO)C[C@H]2C)cc1,14.5
20,Cc1[nH]nc2c1C1(C(=O)N(Cc3ccc(Cl)cc3)c3ccccc31)C(C#N)=C(N)O2 (stereo not given),4.72
21,N#C[C@@H]1[C@@H](c2ccccc2)[C@H](CO)N1S(=O)(=O)c1ccc(-c2ccccc2)cc1,8.78
